{"source": "ChEMBL document CHEMBL1201862", "about": "“PubChem BioAssay data set” (2004)", "note": "The source made the active and inactive calls.", "data": [{"test_system": "SN12K1", "assay": "cells", "type": "functional", "details": "Homo sapiens", "values": [{"smiles": "CCCCCCCC/C=C\\CCCCCCCCCCCC(=O)O", "note": "[ERUCIC ACID]", "GI50": "9.62 µM (inactive)"}]}, {"biological_target": "T1, Histone-lysine N-methyltransferase NSD2 (Homo sapiens, UniProt O96028)", "T1 sequence (O96028 whole entry)": "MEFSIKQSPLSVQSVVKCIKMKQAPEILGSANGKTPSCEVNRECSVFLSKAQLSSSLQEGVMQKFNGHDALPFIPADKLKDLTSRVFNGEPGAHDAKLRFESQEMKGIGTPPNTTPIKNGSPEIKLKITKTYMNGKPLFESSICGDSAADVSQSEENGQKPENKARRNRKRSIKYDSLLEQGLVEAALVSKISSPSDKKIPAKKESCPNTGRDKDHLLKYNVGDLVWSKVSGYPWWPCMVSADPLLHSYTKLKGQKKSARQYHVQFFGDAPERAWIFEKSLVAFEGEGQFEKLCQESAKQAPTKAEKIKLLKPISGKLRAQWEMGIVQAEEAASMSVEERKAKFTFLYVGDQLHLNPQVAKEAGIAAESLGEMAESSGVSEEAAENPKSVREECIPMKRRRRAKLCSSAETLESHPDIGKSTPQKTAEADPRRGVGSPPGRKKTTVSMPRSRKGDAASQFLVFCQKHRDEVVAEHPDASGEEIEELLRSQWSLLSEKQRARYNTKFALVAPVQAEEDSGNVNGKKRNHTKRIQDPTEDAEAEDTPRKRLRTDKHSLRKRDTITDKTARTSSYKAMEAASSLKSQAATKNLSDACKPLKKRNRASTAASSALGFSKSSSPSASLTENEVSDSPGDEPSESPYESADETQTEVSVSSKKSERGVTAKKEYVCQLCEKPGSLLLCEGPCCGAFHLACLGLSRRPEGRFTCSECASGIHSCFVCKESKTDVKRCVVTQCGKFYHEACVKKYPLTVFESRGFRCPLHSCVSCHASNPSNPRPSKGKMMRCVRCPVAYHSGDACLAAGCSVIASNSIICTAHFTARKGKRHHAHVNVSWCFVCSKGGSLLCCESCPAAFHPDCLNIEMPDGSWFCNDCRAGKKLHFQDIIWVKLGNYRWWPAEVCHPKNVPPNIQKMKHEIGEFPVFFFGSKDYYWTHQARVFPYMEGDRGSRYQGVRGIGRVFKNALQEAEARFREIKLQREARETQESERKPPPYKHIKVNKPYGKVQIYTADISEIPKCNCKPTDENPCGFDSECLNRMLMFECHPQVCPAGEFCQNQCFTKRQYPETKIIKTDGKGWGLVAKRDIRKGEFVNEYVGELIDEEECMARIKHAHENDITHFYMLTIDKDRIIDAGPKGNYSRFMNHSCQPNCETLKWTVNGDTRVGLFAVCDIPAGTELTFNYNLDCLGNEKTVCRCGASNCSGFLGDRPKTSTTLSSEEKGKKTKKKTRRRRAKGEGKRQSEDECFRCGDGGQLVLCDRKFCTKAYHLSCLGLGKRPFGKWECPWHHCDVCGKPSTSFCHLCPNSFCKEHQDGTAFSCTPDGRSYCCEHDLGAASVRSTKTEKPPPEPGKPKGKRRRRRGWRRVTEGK", "assay": "not given", "type": "biochemical", "details": "not given", "values": [{"smiles": "CCCCCSc1cc(OC)c(CCNC)cc1OC", "AC50": "17.5 µM (active)"}]}, {"test_system": "not listed separately", "assay": "Luminescence Cell-Based Dose Retest to Confirm Inhibitors of Cancer Stem Cells. [Related pubchem assays (depositor defined):AID2717, AID2721]", "type": "functional", "details": "Homo sapiens", "values": [{"smiles": "N#Cc1c(NC(=O)c2ccc(Cn3cc(Br)cn3)o2)sc2c1CCCCC2", "AC50": "2.97 µM (active)"}]}, {"biological_target": "T2, Sentrin-specific protease 7 (Homo sapiens, UniProt Q9BQF6)", "T2 sequence (Q9BQF6 whole entry)": "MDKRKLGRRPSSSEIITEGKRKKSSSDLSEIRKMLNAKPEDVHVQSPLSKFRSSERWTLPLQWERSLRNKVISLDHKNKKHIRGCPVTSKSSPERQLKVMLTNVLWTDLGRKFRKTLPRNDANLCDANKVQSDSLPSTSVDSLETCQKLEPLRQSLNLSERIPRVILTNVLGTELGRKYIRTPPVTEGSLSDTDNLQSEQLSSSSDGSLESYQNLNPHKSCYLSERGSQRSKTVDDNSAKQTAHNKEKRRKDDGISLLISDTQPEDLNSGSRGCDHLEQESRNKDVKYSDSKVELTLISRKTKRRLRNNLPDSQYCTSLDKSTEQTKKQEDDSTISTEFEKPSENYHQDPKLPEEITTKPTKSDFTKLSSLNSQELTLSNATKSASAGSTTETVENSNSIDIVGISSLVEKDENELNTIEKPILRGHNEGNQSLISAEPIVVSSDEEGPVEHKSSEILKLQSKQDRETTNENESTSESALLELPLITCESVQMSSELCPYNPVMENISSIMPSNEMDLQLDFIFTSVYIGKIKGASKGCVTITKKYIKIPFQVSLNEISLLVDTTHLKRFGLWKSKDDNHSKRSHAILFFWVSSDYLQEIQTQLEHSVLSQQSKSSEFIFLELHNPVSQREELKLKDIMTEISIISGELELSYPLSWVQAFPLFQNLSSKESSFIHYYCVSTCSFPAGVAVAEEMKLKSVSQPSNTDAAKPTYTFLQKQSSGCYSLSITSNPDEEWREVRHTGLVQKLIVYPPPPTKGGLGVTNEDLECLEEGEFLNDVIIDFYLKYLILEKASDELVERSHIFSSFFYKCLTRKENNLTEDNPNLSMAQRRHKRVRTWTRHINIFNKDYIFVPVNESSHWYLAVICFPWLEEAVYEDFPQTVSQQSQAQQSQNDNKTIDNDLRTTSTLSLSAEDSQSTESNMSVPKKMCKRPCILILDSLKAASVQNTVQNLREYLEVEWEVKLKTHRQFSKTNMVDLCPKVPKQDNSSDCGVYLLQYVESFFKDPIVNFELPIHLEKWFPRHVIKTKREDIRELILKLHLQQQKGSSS", "assay": "inhibition of human SENP7 cleavage activity – biochemical, luminescence, SAR follow-up (AID 504497)", "type": "functional", "details": "not given", "values": [{"smiles": "O=C(Nc1ccc(F)c(F)c1)c1ccc2c(c1)OCO2", "IC50": "2.85 µM (active)"}, {"smiles": "N#Cc1c(NC(=O)c2ccc(Cn3cc(Br)cn3)o2)sc2c1CCCCC2", "IC50": "> 99 µM (inactive)"}, {"smiles": "O=C(Nc1nc2ccc(Cl)cc2s1)c1ccc(C(F)(F)F)cc1", "IC50": "> 99 µM (inactive)"}, {"smiles": "CC(=O)Oc1ccccc1/C=C(\\C)c1noc(-c2ccccc2O)n1", "IC50": "> 99 µM (inactive)"}]}, {"test_system": "P388", "assay": "cells", "type": "functional", "details": "Mus musculus", "values": [{"smiles": "C[C@@]1(CO)[C@H](O)CC[C@@]2(C)[C@H]1CC[C@H]1C[C@@H]3C[C@@]12CC[C@@]3(O)COC(=O)CN", "GI50": "1.11 µM (active)"}, {"smiles": "CCCCCCCC/C=C\\CCCCCCCCCCCC(=O)O", "note": "[ERUCIC ACID]", "GI50": "11.2 µM (inactive)"}]}, {"biological_target": "T3, Sentrin-specific protease 6 (Homo sapiens, UniProt Q9GZR1)", "T3 sequence (Q9GZR1 whole entry)": "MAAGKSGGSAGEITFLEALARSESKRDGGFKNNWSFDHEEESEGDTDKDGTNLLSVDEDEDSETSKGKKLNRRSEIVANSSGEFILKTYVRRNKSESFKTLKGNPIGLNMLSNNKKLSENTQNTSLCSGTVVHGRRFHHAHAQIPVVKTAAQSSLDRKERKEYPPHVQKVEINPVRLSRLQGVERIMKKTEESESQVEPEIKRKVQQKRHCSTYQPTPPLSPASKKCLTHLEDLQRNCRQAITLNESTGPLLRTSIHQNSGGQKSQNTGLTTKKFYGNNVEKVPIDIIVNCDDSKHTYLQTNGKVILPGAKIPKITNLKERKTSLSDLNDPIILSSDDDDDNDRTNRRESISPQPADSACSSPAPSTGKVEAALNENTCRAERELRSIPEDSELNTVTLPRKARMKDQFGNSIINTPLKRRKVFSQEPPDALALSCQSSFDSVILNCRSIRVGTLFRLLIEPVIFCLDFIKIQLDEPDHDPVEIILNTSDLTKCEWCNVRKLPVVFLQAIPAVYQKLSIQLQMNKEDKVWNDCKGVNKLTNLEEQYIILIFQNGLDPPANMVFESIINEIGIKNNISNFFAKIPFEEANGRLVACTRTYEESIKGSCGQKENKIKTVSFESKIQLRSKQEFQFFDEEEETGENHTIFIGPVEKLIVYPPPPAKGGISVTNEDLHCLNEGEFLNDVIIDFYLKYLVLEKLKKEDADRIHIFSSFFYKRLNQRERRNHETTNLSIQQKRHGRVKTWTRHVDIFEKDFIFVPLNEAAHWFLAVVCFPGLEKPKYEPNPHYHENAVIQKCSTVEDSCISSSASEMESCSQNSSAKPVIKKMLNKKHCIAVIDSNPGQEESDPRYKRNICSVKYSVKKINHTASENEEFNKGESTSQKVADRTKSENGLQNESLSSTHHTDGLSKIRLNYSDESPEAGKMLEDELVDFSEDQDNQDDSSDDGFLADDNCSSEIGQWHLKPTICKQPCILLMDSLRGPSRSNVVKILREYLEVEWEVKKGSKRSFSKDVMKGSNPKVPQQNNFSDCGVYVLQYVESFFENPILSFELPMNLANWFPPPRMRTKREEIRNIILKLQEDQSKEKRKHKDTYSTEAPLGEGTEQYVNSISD", "assay": "SAR Analysis of small molecule inhibitors of Sentrin-specific protease 6 (SENP6) using a Luminescent assay. [Related pubchem assays (depositor defined):AID2582, AID2599]", "type": "functional", "details": "not given", "values": [{"smiles": "O=C(Nc1ccc(F)c(F)c1)c1ccc2c(c1)OCO2", "IC50": "8.66 µM (active)"}, {"smiles": "N#Cc1c(NC(=O)c2ccc(Cn3cc(Br)cn3)o2)sc2c1CCCCC2", "IC50": "> 99 µM (inactive)"}, {"smiles": "O=C(Nc1nc2ccc(Cl)cc2s1)c1ccc(C(F)(F)F)cc1", "IC50": "> 99 µM (inactive)"}, {"smiles": "CC(=O)Oc1ccccc1/C=C(\\C)c1noc(-c2ccccc2O)n1", "IC50": "> 99 µM (inactive)"}]}, {"biological_target": "T4, Caspase-3 (Homo sapiens, UniProt P42574)", "T4 sequence (P42574 whole entry)": "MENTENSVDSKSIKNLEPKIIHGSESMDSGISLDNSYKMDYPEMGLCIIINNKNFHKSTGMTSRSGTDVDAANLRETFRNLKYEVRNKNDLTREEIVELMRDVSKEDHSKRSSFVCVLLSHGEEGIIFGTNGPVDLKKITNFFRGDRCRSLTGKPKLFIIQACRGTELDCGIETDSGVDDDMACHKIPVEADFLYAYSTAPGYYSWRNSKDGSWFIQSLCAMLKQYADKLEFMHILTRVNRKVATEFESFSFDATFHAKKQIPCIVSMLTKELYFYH", "assay": "SAR Analysis of small molecule inhibitors of Sentrin-specific proteases (SENPs) using a Caspase-3 Selectivity assay. [Related pubchem assays (depositor defined):AID2540, AID2599, AID434973, AID489001]", "type": "functional", "details": "not given", "values": [{"smiles": "O=C(Nc1ccc(F)c(F)c1)c1ccc2c(c1)OCO2", "IC50": "3.11 µM (active)"}, {"smiles": "N#Cc1c(NC(=O)c2ccc(Cn3cc(Br)cn3)o2)sc2c1CCCCC2", "IC50": "> 99 µM (inactive)"}, {"smiles": "O=C(Nc1nc2ccc(Cl)cc2s1)c1ccc(C(F)(F)F)cc1", "IC50": "> 99 µM (inactive)"}, {"smiles": "CC(=O)Oc1ccccc1/C=C(\\C)c1noc(-c2ccccc2O)n1", "IC50": "> 99 µM (inactive)"}]}, {"biological_target": "T5, Sentrin-specific protease 8 (Homo sapiens, UniProt Q96LD8)", "T5 sequence (Q96LD8 whole entry)": "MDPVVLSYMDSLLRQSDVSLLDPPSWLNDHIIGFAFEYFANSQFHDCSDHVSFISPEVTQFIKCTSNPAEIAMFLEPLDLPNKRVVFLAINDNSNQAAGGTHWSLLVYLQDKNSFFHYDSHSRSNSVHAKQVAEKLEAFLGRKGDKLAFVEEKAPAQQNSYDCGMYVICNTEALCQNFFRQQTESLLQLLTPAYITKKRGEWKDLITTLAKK", "assay": "inhibition of human SENP8 cleavage activity – biochemical, luminescence, SAR follow-up (AID 504501)", "type": "functional", "details": "not given", "values": [{"smiles": "O=C(Nc1ccc(F)c(F)c1)c1ccc2c(c1)OCO2", "IC50": "8.53 µM (active)"}, {"smiles": "N#Cc1c(NC(=O)c2ccc(Cn3cc(Br)cn3)o2)sc2c1CCCCC2", "IC50": "> 99 µM (inactive)"}, {"smiles": "O=C(Nc1nc2ccc(Cl)cc2s1)c1ccc(C(F)(F)F)cc1", "IC50": "> 99 µM (inactive)"}, {"smiles": "CC(=O)Oc1ccccc1/C=C(\\C)c1noc(-c2ccccc2O)n1", "IC50": "> 99 µM (inactive)"}]}, {"test_system": "P388/ADR", "assay": "cells", "type": "functional", "details": "Mus musculus", "values": [{"smiles": "C[C@@]1(CO)[C@H](O)CC[C@@]2(C)[C@H]1CC[C@H]1C[C@@H]3C[C@@]12CC[C@@]3(O)COC(=O)CN", "GI50": "0.481 µM (active)"}, {"smiles": "CCCCCCCC/C=C\\CCCCCCCCCCCC(=O)O", "note": "[ERUCIC ACID]", "GI50": "14.4 µM (inactive)"}]}]}
